Measured values as given in patent US9005314B2, “Biphenyl benzyl ether marker compounds for liquid hydrocarbons and other fuels and oils” (Dow Global Technologies LLC, priority 2010, dated 2015).
One block for each molecule: values may come before it.

Key:
[1] = Laundering stability/extractability of marker in xylene solution, GC analysis versus un-laundered reference; type: physicochemical; settings: 8 hours; for Marker: 95:5 marked xylenes:agent, relative to control = 100; for Change %: versus control
Procedure: (§1) The stability and extractability of a representative marker was performed using xylene solutions containing between 100-1000 ppm maker and an equivalent amount of squalene internal reference standard using the following protocols:
Mix 95 parts marked xylenes with 5 parts laundering agent in a 100 mL vial. Mix gently for 8 hours using a magnetic stir bar. Stop mixing and remove a xylene solution aliquot. Analyze by GC and compare marker response to reference (un-laundered) sample.
(§2) Laundering Agents: • 1) 5% sulfuric acid • 2) 98% sulfuric acid • 3) 5% NaOH solution • 4) 50% NaOH solution To test for metal adsorptivity, 100 mL marked xylene tests solution is treated with 5 grams metal shavings at room temperature for 8 hours. GC analysis is again used to determine any loss of marker to the metal surface.

[2] = Metal adsorptivity: marked xylene treated with metal shavings, GC analysis; type: physicochemical; settings: 100 mL marked xylene, 5 grams metal shavings, room temperature, 8 hours
Procedure: as §1, §2

Marker ([1]; 5% H2SO4 laundering agent): 85.51 | Change % ([1]; 5% H2SO4 laundering agent): −14.49% | Marker ([1]; 5% NaOH laundering agent): 100.01 | Change % ([1]; 5% NaOH laundering agent): 0.01% | Marker ([1]; 50% NaOH laundering agent): 101.85 | Change % ([1]; 50% NaOH laundering agent): 1.85% | Marker ([1]; 98% H2SO4 laundering agent): 0.00 | Change % ([1]; 98% H2SO4 laundering agent): −100.00% | Change % [2]: +4% | Marker [2]: 104% | melting point: 176 °C
Compound: c1ccc(OCc2ccc(-c3ccc(COc4ccccc4)cc3)cc2)cc1 [4,4′-bis(phenoxymethyl)-1,1′-biphenyl]

melting point: 218 °C
Compound: CC(C)(C)c1ccc(OCc2ccc(-c3ccc(COc4ccc(C(C)(C)C)cc4)cc3)cc2)cc1 [Example 4, 4,4′-bis(4-t-butylphenoxymethyl)-1,1′-biphenyl]

melting point: 209 °C
Compound: Cc1ccccc1OCc1ccc(-c2ccc(COc3ccccc3C)cc2)cc1 [4,4′-bis(2-methylphenoxymethyl)-1,1′-biphenyl]

melting point: 206 °C
Compound: Cc1ccc(OCc2ccc(-c3ccc(COc4ccc(C)cc4)cc3)cc2)cc1 [4,4′-bis(4-methylphenoxymethyl)-1,1′-biphenyl]
